# Legend:
# Assay type in all cases: cell-based
# [1] = test system: 3T3-L1 cells; test: Adipocyte differentiation inhibitory effect; conditions: tested 0.16, 0.31, 0.63, 1.25 μg/ml
# Protocol: To confirm the effect of the Centipeda minima extract for inhibiting non-alcoholic steatohepatitis, an experiment was performed on preadipocytes according to an inflammatory disease treatment agent.
# Specifically, the evaluation was performed by using 3T3-L1 cells, which are preadipocytes, and after the 3T3-L1 cells were treated with each of JAKI and elafibranor at concentrations of 0 μg/ml, 0.16 μg/ml, 0.31 μg/ml, 0.63 μg/ml, and 1.25 μg/ml and then cultured for 6 hours under the same conditions, the changes of the 3T3-L1 cells were analyzed.
# [2] = test system: 3T3-L1 cells; test: TNF-a induced IL-6 production in preadipocytes; conditions: 0.16 to 2.5 μg/ml
# Protocol: To confirm the non-alcoholic steatohepatitis inhibitory effect of the Centipeda minima extract, an experiment was performed with INF-a induced IL-6 production in preadipocytes according to an inflammatory disease treatment agent.
# (§1) Specifically, the evaluation was performed by using 3T3-L1 cells, which are preadipocytes, and after the 3T3-L1 cells were treated with each of JAKI and elafibranor at concentrations of 0 μg/ml, 0.16 μg/ml, 0.31 μg/ml, 0.63 μg/ml, 1.25 μg/ml, and 2.5 μg/ml and then cultured for 6 hours under the same conditions, the changes of the IL-6 production were analyzed.
# [3] = test system: 3T3-L1 cells; test: TNF-a induced MCP-1 production in preadipocytes; conditions: 0.16 to 2.5 μg/ml
# Protocol: To confirm the non-alcoholic steatohepatitis inhibitory effect of the Centipeda minima extract, an experiment was performed with TNF-a induced MCP-1 production in preadipocytes according to an inflammatory disease treatment agent.
# as §1, with “MCP-1” for “IL-6”
# [4] = test system: LX-2 cells; test: Liver fibrosis-related protein expression; conditions: 40 μM, 24 hours
# Protocol: Specifically, the evaluation was performed by using LX-2 cells, which are hepatic stellate cells. LX-2 cells treated with TGF-P1 at a concentration of 5 ng/ml were treated with JAKI at concentrations of 0 μM, 20 μM, and 40 μM, and then cultured under the same conditions for 24 hours. Thereafter, the protein expression levels of TGF-131, collagen type-1, MMP-2, TIMP1, and GAPDH, and the protein expression ratios of TGF-131, collagen type-1, MMP-2, and TIMP1 compared to GAPDH were analyzed.
# Specifically, the evaluation was performed by using LX-2 cells, which are hepatic stellate cells. The LX-2 cells treated with 5 ng/ml TGF-P1 were treated with elafibranor at concentrations of 0 μM, 20 μM, 40 μM, and 80 μM in the control group of the present invention, and the cultured for 24 hours under the same conditions. Then, the protein expression ratios of TGF-131, collagen type-1, MMP-2, and TIMP1 compared to GAPDH were analyzed.
compound,measurement,setting,value
CSc1ccc(C(=O)/C=C/c2cc(C)c(OC(C)(C)C(=O)O)c(C)c2)cc1 [elafibranor],concentration from which adipocyte differentiation is inhibited,[1],≥ 0.63 µg/mL
same,change in the IL-6 production,[2],no change
same,change in the MCP-1 production,[3],no change
same,expression ratio of MMP-2 protein compared to GAPDH,[4],decreased
same,expression ratio of TGF-β1 protein compared to GAPDH,[4],decreased
same,expression ratio of TIMP1 protein compared to GAPDH,[4],decreased
same,expression ratio of collagen type-1 protein compared to GAPDH,[4],decreased

# Reference: patent publication US20240016779A1, “COMPOSITION FOR PREVENTING AND TREATING INFLAMMATORY DISEASE AND AUTOIMMUNE DISEASES AND NON-ALCOHOLIC FATTY LIVER DISEASE, COMPRISING EXTRACT DERIVED FROM CENTIPEDA MINIMA” (D-NATURE CO., LTD., priority 2020, published 2024)
